Laboratory results reported in article PMC3280239, “Virtual Screening, Identification and In Vitro Testing of Novel Inhibitors of O-Acetyl-L-Serine Sulfhydrylase of Entamoeba histolytica” (PLoS ONE, 2012).
Like-named read-outs stand apart in the source and are kept apart here.

Assays:
[1] = target: T1, O-acetyl-L-serine sulfhydrylase (EhOASS) (Entamoeba histolytica, UniProt O15570); assay: PLP fluorescence titration (ex […] nm, em […] nm); also […] inhibition of purified enzyme at […]; type: binding
T1 sequence (O15570 entry or part of it): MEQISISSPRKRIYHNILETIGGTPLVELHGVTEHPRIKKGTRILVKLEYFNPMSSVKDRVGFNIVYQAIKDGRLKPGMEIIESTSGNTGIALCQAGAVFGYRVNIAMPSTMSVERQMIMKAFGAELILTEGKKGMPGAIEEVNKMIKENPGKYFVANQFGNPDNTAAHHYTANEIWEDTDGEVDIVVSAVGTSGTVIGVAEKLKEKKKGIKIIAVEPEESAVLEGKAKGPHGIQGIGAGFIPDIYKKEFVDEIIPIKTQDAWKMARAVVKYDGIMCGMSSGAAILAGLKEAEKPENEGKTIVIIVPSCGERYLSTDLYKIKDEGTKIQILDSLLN

[2] = target: T1, O-acetyl-L-serine sulfhydrylase (EhOASS); assay: as above; type: binding; remark: listed apart in the source

SMILES | Kd [1] [µM] | Kd [2] [µM]
O=C(CSc1nc(O)cc(=O)[nH]1)c1c[nH]c2ccccc12 [ZINC08931589, 4-hydroxy-2-[2-(1H-indol-3-yl)-2-oxoethyl]sulfanyl-1H-pyrimidin-6-one] | ~8.05 | –
COc1ccc(C2C(C(C)=O)=C(O)C(=O)N2CCC(=O)O)cc1 (centres unmarked) [ZINC03984585, 3-[3-acetyl-4-hydroxy-2-(4-methoxyphenyl)-5-oxo-2,5-dihydro-1H-pyrrol-1-yl]propanoic acid] | – | 0.18
